Laboratory results from patent US20110166192A1, “PROCESS FOR CHARGING A POLYMERIC PRODUCT WITH ATTRIBUTE IMPARTING AGENT(S)” (ADITYA BIRLA SCIENCE & TECHNOLOGY CO. LTD., priority 2008, published 2011).

Test system: Staphylococcus Aureus bacteria strain ATCC 6538
Test: Sustained/control release of anti-bacterial agent from the polymeric product at various temperatures, AATCC 147 zone of inhibition (FIG. 2)
Assay type: cell-based
Settings: polymeric product containing reservoir (melting range of 35-65° C.) with triclosan, 24 hr contact time
Procedure: The activity of an anti-bacterial agent in the polymeric product was conducted by Qualitative AATCC 147 method. The test was conducted with Staphylococcus Aureus bacteria strain ATCC 6538. Observation of growth under the specimen accompanied with no zone of inhibition was considered as No (i.e. failed test with no anti-bacterial activity) and no growth under the specimen, with or without zone of inhibition was considered as Yes (passed test with anti-bacterial activity).
Also the polymeric product containing reservoir (melting range of 35-65° C.) was incorporated with triclosan as anti-bacterial ingredient. The product was washed and dried at ambient temperature of 20° C. after which the fabric was maintained at said temperature for 30 minutes and measured for efficacy. Anti-bacterial analysis was done based on AATCC 147 with 24 hr contact time and the zone of inhibition (in mm) was measured. The sustained/control release of an anti-bacterial agent in the polymeric product was studied at various temperatures. The results are displaced in FIG. 2 of accompanying drawings.

With `Oc1cc(Cl)ccc1Oc1ccc(Cl)cc1Cl` [triclosan, 5-chloro-2-(2,4-dichlorophenoxy)phenol] as the molecule, how does the “release profile of anti-bacterial agent (zone of inhibition)” value read?
The value was “sustained/control release profile with temperature”.
